From PubChem BioAssay AID1352 (Sanford-Burnham Center for Chemical Genomics, 2008)
Activity calls are given as the source filed them.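 How the source made its calls: active means compound at 25 µM lifting cell survival 30% over the thapsigargin-only control at any thapsigargin dose; inactive means the rest.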

Test system: differentiated PC12, thapsigargin-induced death, ATPlite luminescence, 24 h
Test: ER stress death protection in PC12 neurons – cell-based, differentiated PC12, rat pheochromocytoma, ATP luminescence, SAR follow-up (AID 1352)
Details: at 25 µM, stronger effect = higher value; for survival: measured here: survival

Row | Compound | survival vs thapsigargin 6.25 uM | survival (thapsigargin 0.25 uM) | survival (thapsigargin 1.25 uM)
1 | CC1(C)CC(=O)C2=C(C1)Nc1ccccc1NC2c1ccc(-c2ccccc2)cc1 (stereo not drawn) | 81% | 76% | 41%
2 | CSc1ccc(C2Nc3ccccc3NC3=C2C(=O)CC(c2ccccc2)C3)cc1 (stereo not drawn) | 30% (inactive) | 22% | 17%
3 | CCOc1cccc(C2Nc3ccccc3NC3=C2C(=O)CC(c2ccc(OC)cc2)C3)c1 (stereo not drawn) | 32% (inactive) | 26% | 19%
4 | CCOc1cc(C2Nc3ccccc3NC3=C2C(=O)CC(c2ccc(OC)cc2)C3)cc(Cl)c1O (stereo not drawn) | 44% | 59% | 38%
5 | CCCOc1ccc(C2Nc3ccccc3NC3=C2C(=O)CC(c2ccc(OC)c(OC)c2)C3)cc1 (stereo not drawn) | 33% (inactive) | 32% | 22%
6 | COc1ccc(C2CC(=O)C3=C(C2)Nc2ccccc2NC3c2cccc(Br)c2)cc1OC (stereo not drawn) | 54% | 54% | 37%
7 | COc1ccc(C2CC(=O)C3=C(C2)Nc2ccccc2NC3c2cccc(Oc3ccccc3)c2)cc1OC (stereo not drawn) | 25% (inactive) | 21% | 16%
8 | COc1ccc(C2CC(=O)C3=C(C2)Nc2ccccc2NC3c2cccc(C(F)(F)F)c2)cc1OC (stereo not drawn) | 78% | 44% | 48%
9 | COc1ccc(C2CC(=O)C3=C(C2)Nc2ccccc2NC3c2ccccc2C(F)(F)F)cc1OC (stereo not drawn) | 34% (inactive) | 30% | 25%
10 | O=C1CC(c2ccccc2)CC2=C1C(c1c(F)cccc1Cl)Nc1ccccc1N2 (stereo not drawn) | 39% (inactive) | 38% | 19%
11 | COc1ccc(C2CC(=O)C3=C(C2)Nc2ccccc2NC3c2cc(C)ccc2C)cc1 (stereo not drawn) | 38% | 51% | 29%
